What was measured:
hCA I = hCA I (Homo sapiens, UniProt P00915); experiment: Carbonic anhydrase inhibition, stopped-flow CO2 hydration assay, isoenzyme CA I
Method: (§1) An SX.18MV-R Applied Photophysics stopped flow instrument was used for assaying the CA CO2 hydration activity. […] The buffer solution was constituted by 10 mM HEPES, 0.1 M Na2SO4, and TRIZMA hydrochloride 0.01 M, adjusting the pH solution at 7.5 with NaOH (0.1 M). […] Satured CO2 solution in bidistilled water at 20° C. was used as substrate.
(§2) Stock solutions of inhibitor (1 mM) were prepared with buffer solution with 10-20% (v/v) DMSO, and dilutions up to 0.1 nM. To allow for the formation of the E-1 complex, inhibitor and enzyme solutions were preincubated during 15 min at room temperature prior to assay. Enzyme concentration was 0.1 μM for CA I and II, 10 μM for CA IV. The human CA I and CA II are commercially available, whereas hCA IV (tumor) is cloned isoform.
Each experiment was done in triplicate.

hCA IV = hCA IV (Homo sapiens, UniProt P22748); experiment: Carbonic anhydrase inhibition, stopped-flow CO2 hydration assay, isoenzyme CA IV
Method: as §1, §2
Each experiment was done in triplicate.

hCA II = hCA II (Homo sapiens, UniProt P00918); experiment: Carbonic anhydrase inhibition, stopped-flow CO2 hydration assay, isoenzyme CA II
Method: as §1, §2
Each experiment was done in triplicate.

Sequence of hCA I (P00915 whole entry): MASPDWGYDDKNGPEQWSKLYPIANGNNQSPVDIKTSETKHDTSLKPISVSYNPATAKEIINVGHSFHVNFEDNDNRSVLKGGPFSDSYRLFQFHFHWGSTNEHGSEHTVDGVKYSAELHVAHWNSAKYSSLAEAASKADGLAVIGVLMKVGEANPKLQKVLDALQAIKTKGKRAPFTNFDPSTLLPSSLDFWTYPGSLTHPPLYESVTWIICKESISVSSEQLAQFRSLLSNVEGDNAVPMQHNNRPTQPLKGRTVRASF
Sequence of hCA IV (P22748 19-284 limits assumed): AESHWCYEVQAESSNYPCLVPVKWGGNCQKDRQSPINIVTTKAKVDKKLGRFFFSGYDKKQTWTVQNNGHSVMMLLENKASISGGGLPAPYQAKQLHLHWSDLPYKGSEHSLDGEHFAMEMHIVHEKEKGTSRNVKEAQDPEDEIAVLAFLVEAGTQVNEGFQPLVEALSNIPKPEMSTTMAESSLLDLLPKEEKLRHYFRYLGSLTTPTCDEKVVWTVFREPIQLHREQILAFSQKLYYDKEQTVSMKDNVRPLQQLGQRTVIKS

| Structure (SMILES) | Ki (hCA I) [µM] | Ki (hCA IV) [µM] | Ki (hCA II) [µM] |
| --- | --- | --- | --- |
| CCN[C@H]1CC(C)S(=O)(=O)c2sc(S(=O)(=O)NC(=O)CCCCCO[N+](=O)[O-])cc21 (stereo partly drawn) [Ex. 1, (4S-trans)-4-(ethylamino)-5,6-dihydro-6-methyl-4H-thieno[2,3-b]thiopyran-2-sulfonylamido-N((6-nitrooxy)hexanoyl)-7,7-dioxide] | 15 | 3.4 | 0.251 |
| CCN[C@H]1CC(C)S(=O)(=O)c2sc(S(=O)(=O)NC(=O)OCCCCO[N+](=O)[O-])cc21 (stereo partly drawn) [Ex. 7, (4S-trans)-4-(ethylamino)-5,6-dihydro-6-methyl-4H-thieno[2,3-b]thiopyran-2-sulfonylamido-N-(4-(nitrooxy)butyloxycarbonyl)-7,7-dioxide] | 42.3 | 0.411 | 0.886 |
